Experimental data from US10660333B2, “Substituted 2-heterocyclylimidazolylcarboxamides as pesticides” (BAYER CROPSCIENCE AKTIENGESELLSCHAFT, priority 2016, dated 2020).

Tested on: not listed separately
Experiment: log P by HPLC on reversed-phase (C18) columns, OECD Guideline 117
Type: physicochemical
Settings: pH 2.7

Row | logP[a] | SMILES
1 | 1.55 | CN(C(=O)c1cnc(C2CC(c3ccc(F)cc3)=NO2)n1C)c1cccnc1 (stereo not drawn) [Example I-1-22]

Same assay, conditions: pH 7.8

Row | logP[n] | SMILES
2 | 1.82 | CN(C(=O)c1cnc(C2CC(c3ccc(F)cc3)=NO2)n1C)c1cccnc1 (stereo not drawn) [Example I-1-22]

Same assay, conditions: reversed-phase (C18) HPLC column; HPLC RP C18, acidic range pH 2.7, 0.1% formic acid/acetonitrile; read-out: logP[a]

Row | chromatographic logP | SMILES
3 | 0.1 | CN(C(=O)c1cnc(C2CC=NO2)n1C)c1cccnc1 (stereo not drawn) [Example I-1-30]
4 | 1.01 | CN(C(=O)c1cnc(C2CC(c3ccccn3)=NO2)n1C)c1cccnc1 (stereo not drawn) [Example I-1-26]
5 | 1.08 | CC(C)C1=NOC(c2ncc(C(=O)N(C)c3cccnc3)n2C)C1 (stereo not drawn) [Example I-1-3]

Same assay, conditions: reversed-phase (C18) HPLC column; HPLC RP C18, neutral range pH 7.8, ammonium hydrogencarbonate/acetonitrile; read-out: logP[n]

Row | chromatographic logP | SMILES
6 | 0.57 | CN(C(=O)c1cnc(C2CC=NO2)n1C)c1cccnc1 (stereo not drawn) [Example I-1-30]
7 | 1.27 | CN(C(=O)c1cnc(C2CC(c3ccccn3)=NO2)n1C)c1cccnc1 (stereo not drawn) [Example I-1-26]
8 | 1.34 | CC(C)C1=NOC(c2ncc(C(=O)N(C)c3cccnc3)n2C)C1 (stereo not drawn) [Example I-1-3]

Tested on: Myzus persicae
Experiment: Myzus persicae - spray test
Type: in vivo
Settings: 500 g/ha, Chinese cabbage leaf discs, after 5 days
Procedure: Myzus persicae—Spray Test
(§1) To produce a suitable active ingredient formulation, 1 part by weight of active ingredient is dissolved with the specified parts by weight of solvent and made up to the desired concentration with water containing an emulsifier concentration of 1000 ppm. To produce further test concentrations, the formulation is diluted with emulsifier-containing water.
(§2) Discs of Chinese cabbage leaves (Brassica pekinensis) infested by all stages of the green peach aphid (Myzus persicae) are sprayed with an active ingredient formulation of the desired concentration.
(§3) After 5 days, the efficacy in % is determined. 100% means that all the aphids have been killed; 0% means that no aphids have been killed.

Row | SMILES | efficacy (aphids killed) [%]
9 | CN(C(=O)c1cnc(C2CC(c3ccc(F)cc3)=NO2)n1C)c1cccnc1 (stereo not drawn) [Example I-1-22] | 100

Same assay, conditions: Myzus persicae, foliar, 120 h; 500 g/ha, Chinese cabbage leaf discs, after 5 days; read-out: efficacy (aphids killed)

Row | SMILES | pest or weed control at 500 g/ha [%]
10 | CN(C(=O)c1cnc(C2CC=NO2)n1C)c1cccnc1 (stereo not drawn) [Example I-1-30] | 90
11 | CN(C(=O)c1cnc(C2CC(c3ccccn3)=NO2)n1C)c1cccnc1 (stereo not drawn) [Example I-1-26] | 90
12 | CC(C)C1=NOC(c2ncc(C(=O)N(C)c3cccnc3)n2C)C1 (stereo not drawn) [Example I-1-3] | 100

Tested on: Myzus persicae
Experiment: Myzus persicae - oral test
Type: in vivo
Settings: 4 ppm, oral, after 5 days
Procedure: (§4) To produce a suitable active ingredient formulation, 1 part by weight of active ingredient is dissolved with the specified parts by weight of solvent and made up to the desired concentration with water.
(§5) 50 μl of the active ingredient formulation are transferred into microtitre plates and made up to a final volume of 200 μl with 150 μl of IPL41 insect medium (33%+15% sugar). Subsequently, the plates are sealed with parafilm, which a mixed population of green peach aphids (Myzus persicae) within a second microtitre plate is able to puncture and imbibe the solution.
as §3

Row | SMILES | efficacy (aphids killed) [%]
13 | CN(C(=O)c1cnc(C2CC(c3ccc(F)cc3)=NO2)n1C)c1cccnc1 (stereo not drawn) [Example I-1-22] | 100

Same assay, conditions: Myzus persicae, 120 h; 4 ppm, oral, after 5 days; read-out: efficacy (aphids killed)

Row | SMILES | pest or weed control at 4 ppm [%]
14 | CN(C(=O)c1cnc(C2CC=NO2)n1C)c1cccnc1 (stereo not drawn) [Example I-1-30] | 90
15 | CN(C(=O)c1cnc(C2CC(c3ccccn3)=NO2)n1C)c1cccnc1 (stereo not drawn) [Example I-1-26] | 100
16 | CC(C)C1=NOC(c2ncc(C(=O)N(C)c3cccnc3)n2C)C1 (stereo not drawn) [Example I-1-3] | 100

Tested on: Myzus persicae
Experiment: Myzus persicae - spray test (MYZUPE), comparison with prior art
Type: in vivo
Settings: 4 g/ha (g of ai/ha), 5 dat
Procedure: Myzus persicae—Spray Test (MYZUPE)
as §1, §2
(§6) After the desired period of time, the efficacy in % is determined. 100% means that all the aphids have been killed; 0% means that no aphids have been killed.

Row | SMILES | % efficacy [%]
17 | CN(C(=O)c1cnc(C2CC(c3ccc(F)cc3)=NO2)n1C)c1cccnc1 (stereo not drawn) [Example I-1-22] | 90

Same assay, conditions: 20 g/ha (g of ai/ha), 5 dat

Row | SMILES | % efficacy [%]
18 | CN(C(=O)c1cnc(C2CC(c3ccc(F)cc3)=NO2)n1C)c1cccnc1 (stereo not drawn) [Example I-1-22] | 100

Same assay, conditions: 100 g/ha (g of ai/ha), 5 dat

Row | SMILES | % efficacy [%]
19 | CN(C(=O)c1cnc(C2CC(c3ccc(F)cc3)=NO2)n1C)c1cccnc1 (stereo not drawn) [Example I-1-22] | 100

Same assay, conditions: 500 g/ha, 5 dat

Row | SMILES | % efficacy [%]
20 | CN(C(=O)c1cnc(C2CC(c3ccc(F)cc3)=NO2)n1C)c1cccnc1 (stereo not drawn) [Example I-1-22] | 100

Same assay, conditions: Myzus persicae, 120 h, 20 g/ha (g of ai/ha), 5 dat, read-out: % efficacy

Row | SMILES | Emax at 20 g/ha [%]
21 | CN(C(=O)c1cnc(C2CC=NO2)n1C)c1cccnc1 (stereo not drawn) [Example I-1-30] | 70
22 | CN(C(=O)c1cnc(C2CC(c3ccccn3)=NO2)n1C)c1cccnc1 (stereo not drawn) [Example I-1-26] | 90
23 | CC(C)C1=NOC(c2ncc(C(=O)N(C)c3cccnc3)n2C)C1 (stereo not drawn) [Example I-1-3] | 70

Same assay, conditions: Myzus persicae, 120 h, 100 g/ha (g of ai/ha), 5 dat, read-out: % efficacy

Row | SMILES | Emax at 100 g/ha [%]
24 | CN(C(=O)c1cnc(C2CC=NO2)n1C)c1cccnc1 (stereo not drawn) [Example I-1-30] | 70
25 | CN(C(=O)c1cnc(C2CC(c3ccccn3)=NO2)n1C)c1cccnc1 (stereo not drawn) [Example I-1-26] | 90
26 | CC(C)C1=NOC(c2ncc(C(=O)N(C)c3cccnc3)n2C)C1 (stereo not drawn) [Example I-1-3] | 90

Same assay, conditions: Myzus persicae, 120 h, 500 g/ha, 5 dat, read-out: % efficacy

Row | SMILES | Emax at 500 g/ha [%]
27 | CN(C(=O)c1cnc(C2CC=NO2)n1C)c1cccnc1 (stereo not drawn) [Example I-1-30] | 90
28 | CN(C(=O)c1cnc(C2CC(c3ccccn3)=NO2)n1C)c1cccnc1 (stereo not drawn) [Example I-1-26] | 90
29 | CC(C)C1=NOC(c2ncc(C(=O)N(C)c3cccnc3)n2C)C1 (stereo not drawn) [Example I-1-3] | 100

Tested on: Myzus persicae
Experiment: Myzus persicae - oral test (MYZUPE O), comparison with prior art
Type: in vivo
Settings: 0.8 ppm, 5 dat
Procedure: Myzus persicae—Oral Test (MYZUPE O)
as §4, §5, §6

Row | SMILES | % efficacy [%]
30 | CN(C(=O)c1cnc(C2CC(c3ccc(F)cc3)=NO2)n1C)c1cccnc1 (stereo not drawn) [Example I-1-22] | 90

Same assay, conditions: 4 ppm, 5 dat

Row | SMILES | % efficacy [%]
31 | CN(C(=O)c1cnc(C2CC(c3ccc(F)cc3)=NO2)n1C)c1cccnc1 (stereo not drawn) [Example I-1-22] | 100

Same assay, conditions: Myzus persicae, po, 120 h, 0.8 ppm, 5 dat, read-out: % efficacy

Row | SMILES | Emax at 0.8 ppm [%]
32 | CN(C(=O)c1cnc(C2CC=NO2)n1C)c1cccnc1 (stereo not drawn) [Example I-1-30] | 100
33 | CN(C(=O)c1cnc(C2CC(c3ccccn3)=NO2)n1C)c1cccnc1 (stereo not drawn) [Example I-1-26] | 100
34 | CC(C)C1=NOC(c2ncc(C(=O)N(C)c3cccnc3)n2C)C1 (stereo not drawn) [Example I-1-3] | 100

Same assay, conditions: Myzus persicae, po, 120 h, 4 ppm, 5 dat, read-out: % efficacy

Row | SMILES | Emax at 4 ppm [%]
35 | CN(C(=O)c1cnc(C2CC=NO2)n1C)c1cccnc1 (stereo not drawn) [Example I-1-30] | 90
36 | CN(C(=O)c1cnc(C2CC(c3ccccn3)=NO2)n1C)c1cccnc1 (stereo not drawn) [Example I-1-26] | 100
37 | CC(C)C1=NOC(c2ncc(C(=O)N(C)c3cccnc3)n2C)C1 (stereo not drawn) [Example I-1-3] | 100

Tested on: Myzus persicae
Experiment: Myzus persicae - spray test (MYZUPE S), bell pepper plants
Type: in vivo
Settings: 0.16 ppm, 6 dat
Procedure: Myzus persicae—Spray Test (MYZUPE S)
as §1, with “water. If the addition of ammonium salts or/and penetrants is required, these are each added in a concentration of 1000 ppm to the formulation solution.” for “water.”
Bell pepper plants (Capsicum annuum) severely infested with the green peach aphid (Myzus persicae) are treated by spraying with the active ingredient formulation in the desired concentration.
After the desired time, the kill in % is determined. 100% means that all the animals have been killed; 0% means that no animals have been killed.

Row | SMILES | % efficacy [%]
38 | CN(C(=O)c1cnc(C2CC(c3ccc(F)cc3)=NO2)n1C)c1cccnc1 (stereo not drawn) [Example I-1-22] | 90

Same assay, conditions: 0.8 ppm, 6 dat

Row | SMILES | % efficacy [%]
39 | CN(C(=O)c1cnc(C2CC(c3ccc(F)cc3)=NO2)n1C)c1cccnc1 (stereo not drawn) [Example I-1-22] | 99

Same assay, conditions: Myzus persicae, 144 h, 0.16 ppm, 6 dat, read-out: % efficacy

Row | SMILES | Emax at 0.16 ppm [%]
40 | CN(C(=O)c1cnc(C2CC=NO2)n1C)c1cccnc1 (stereo not drawn) [Example I-1-30] | 95
41 | CN(C(=O)c1cnc(C2CC(c3ccccn3)=NO2)n1C)c1cccnc1 (stereo not drawn) [Example I-1-26] | 100
42 | CC(C)C1=NOC(c2ncc(C(=O)N(C)c3cccnc3)n2C)C1 (stereo not drawn) [Example I-1-3] | 99

Same assay, conditions: Myzus persicae, 144 h, 0.8 ppm, 6 dat, read-out: % efficacy

Row | SMILES | Emax at 0.8 ppm [%]
43 | CN(C(=O)c1cnc(C2CC=NO2)n1C)c1cccnc1 (stereo not drawn) [Example I-1-30] | 100
44 | CN(C(=O)c1cnc(C2CC(c3ccccn3)=NO2)n1C)c1cccnc1 (stereo not drawn) [Example I-1-26] | 100
45 | CC(C)C1=NOC(c2ncc(C(=O)N(C)c3cccnc3)n2C)C1 (stereo not drawn) [Example I-1-3] | 100

Tested on: Myzus persicae
Experiment: Myzus persicae - drench test (MYZUPE D), savoy cabbage
Type: in vivo
Settings: 0.16 ppm, 10 dat
Procedure: Myzus persicae—Drench Test (MYZUPE D)
To produce a suitable active ingredient formulation, 1 part by weight of active ingredient is mixed with the specified amounts of solvent and emulsifier, and the concentrate is diluted with water to the desired concentration, it being necessary to include the volume of soil which is drenched in the calculation. It should be ensured that a concentration of 40 ppm of emulsifier in the soil is not exceeded. To produce further test concentrations, water is used for dilution.
Savoy cabbage (Brassica oleracea) in pots with soil and infested by all stages of the green peach aphid (Myzus persicae) is watered with an active ingredient formulation of the desired concentration.
as §6

Row | SMILES | % efficacy [%]
46 | CN(C(=O)c1cnc(C2CC(c3ccc(F)cc3)=NO2)n1C)c1cccnc1 (stereo not drawn) [Example I-1-22] | 90

Same assay, conditions: 0.8 ppm, 10 dat

Row | SMILES | % efficacy [%]
47 | CN(C(=O)c1cnc(C2CC(c3ccc(F)cc3)=NO2)n1C)c1cccnc1 (stereo not drawn) [Example I-1-22] | 95

Same assay, conditions: Myzus persicae, soil, 240 h, 0.16 ppm, 10 dat, read-out: % efficacy

Row | SMILES | Emax at 0.16 ppm [%]
48 | CN(C(=O)c1cnc(C2CC=NO2)n1C)c1cccnc1 (stereo not drawn) [Example I-1-30] | 95
49 | CN(C(=O)c1cnc(C2CC(c3ccccn3)=NO2)n1C)c1cccnc1 (stereo not drawn) [Example I-1-26] | 95
50 | CC(C)C1=NOC(c2ncc(C(=O)N(C)c3cccnc3)n2C)C1 (stereo not drawn) [Example I-1-3] | 95

Same assay, conditions: Myzus persicae, soil, 240 h, 0.8 ppm, 10 dat, read-out: % efficacy

Row | SMILES | Emax at 0.8 ppm [%]
51 | CN(C(=O)c1cnc(C2CC=NO2)n1C)c1cccnc1 (stereo not drawn) [Example I-1-30] | 95
52 | CN(C(=O)c1cnc(C2CC(c3ccccn3)=NO2)n1C)c1cccnc1 (stereo not drawn) [Example I-1-26] | 98
53 | CC(C)C1=NOC(c2ncc(C(=O)N(C)c3cccnc3)n2C)C1 (stereo not drawn) [Example I-1-3] | 100

Tested on: Aphis gossypii
Experiment: Aphis gossypii - spray test (APHIGO S), cotton plants
Type: in vivo
Settings: 144 h, 0.16 ppm, 6 dat, read-out: % efficacy
Procedure: Aphis gossypii—Spray Test (APHIGO S)
as §1, with “water. If the addition of ammonium salts or/and penetrants is required, these are each added in a concentration of 1000 ppm to the formulation solution.” for “water.”
Cotton plants (Gossypium hirsutum) heavily infested by the cotton aphid (Aphis gossypii) are sprayed with an active ingredient formulation of the desired concentration.
After the desired time, the kill in % is determined. 100% means that all the aphids have been killed; 0% means that no aphids have been killed.

Row | SMILES | Emax at 0.16 ppm [%]
54 | CC(C)C1=NOC(c2ncc(C(=O)N(C)c3cccnc3)n2C)C1 (stereo not drawn) [Example I-1-3] | 70

Same assay, conditions: 144 h, 0.8 ppm, 6 dat, read-out: % efficacy

Row | SMILES | Emax at 0.8 ppm [%]
55 | CN(C(=O)c1cnc(C2CC=NO2)n1C)c1cccnc1 (stereo not drawn) [Example I-1-30] | 80
56 | CN(C(=O)c1cnc(C2CC(c3ccccn3)=NO2)n1C)c1cccnc1 (stereo not drawn) [Example I-1-26] | 100
57 | CC(C)C1=NOC(c2ncc(C(=O)N(C)c3cccnc3)n2C)C1 (stereo not drawn) [Example I-1-3] | 100
